Source: patent US11065249B2, “Diacylglycerol acyl transferase 2 inhibitor” (Pfizer Inc., priority 2019, dated 2021)
Structures can show the parent of a compound that is named as a salt.

Assays:
[1] = Determination of pKa (capillary electrophoresis, Analiza); assay type: physicochemical; settings: most basic pKa, mean
[2] = Intrinsic clearance in human liver microsomes; assay type: in vitro ADME; settings: 1 μM test compound, mean +/− STD Dev; for microsomal CLint at 1 μM: human, pooled human liver microsomes, pH 7.4, human liver microsome assay; for CLint (+/−STD Dev): human liver microsome assay
Procedure: The incubations were conducted at 37° C. […] (Sorvall R C 3C Plus, Thermo Scientific, Waltham, Mass.).

[3] = biological target: human DGAT2 (hDGAT2) (Homo sapiens (Human), UniProt Q96PD7); experiment: In vitro DGAT2 assay, determination of IC50 values for DGAT2 inhibitors; assay type: biochemical; settings: inhibition of DGAT2, hDGAT2 membrane fractions; geometric mean
Procedure: Recombinant baculovirus for the FLAG-tagged hDGAT2 was generated in SF9 insect cells using Bac-to-Bac baculovirus expression system (Invitrogen) according to the manufacturer's protocol. For the expression of hDGAT2, SF9 cells (20 L) grown in Sf900II media were infected with hDGAT2 baculovirus at a multiplicity of infection of 1 in a Wave Bioreactor System 20/50P wave bag (GE Healthcare). After 40 hours of infection, the cells were then harvested by centrifugation at 5,000×g. The cell pellets were washed by resuspending in phosphate buffered saline (PBS) and collected by centrifugation at 5,000×g. The cell paste was flash frozen in liquid N2 and stored at −80° C. until needed. All operations below were at 4° C. unless otherwise noted. The cells were resuspended in lysis buffer (50 mM Tris-HCl, pH 8.0, 250 mM sucrose) including 1 mM ethylenediaminetetraacetic acid (EDTA) and the complete protease inhibitor cocktail (Roche Diagnostics) at a ratio of 3 mL buffer per 1 g cell paste. The cells were lysed by dounce homogenizer. The cell debris was removed by centrifugation at 1,000×g for 20 min, and the supernatant was centrifuged at 100,000×g for 1 hour. The resulting pellet was rinsed three times by filling ultracentrifuge tubes to the top with ice cold PBS before decanting. The washed pellet was resuspended with gentle stirring for 1 hour in lysis buffer containing 8 mM 3-[(3-cholamidopropyl)dimethylammonio]-1-propanesulfonate (CHAPS) at a ratio of 1 mL buffer per 1 g of original cell paste and centrifuged again at 100,000×g for 1 hour. The resulting supernatant was aliquotted, flash frozen in liquid N2, and stored at −80° C. until use.
To 1 μL of compounds dissolved in 100% DMSO and spotted at the bottom of each well, 5 μL of 0.04% bovine serum albumin (BSA) (fatty acid free, Sigma Aldrich) was added and the mixture was incubated at room temperature for 15 minutes. hDGAT2 membrane fractions were diluted in 100 mM Hepes-NaOH, pH 7.4, 20 mM MgCl2 containing 200 nM methyl arachidonyl fluorophosphonate (Cayman Chemical, dried from ethyl acetate stock solution under argon gas and dissolved in DMSO as 5 mM stock). 10 μL of this enzyme working solution was added to the plates and incubation continued for 2 hours at room temperature. DGAT2 reactions were initiated by the addition of 4 μL of substrates containing 30 μM [1-^14C]decanoyl-CoA (custom-synthesized by Perkin Elmer, 50 mCi/mmol) and 125 μM 1,2-didecanoyl-sn-glycerol (Avanti Polar Lipids) dissolved in 12.5% acetone. The reaction mixtures were incubated at room temperature for 40 min and the reactions were stopped by addition of 5 μL of 1% H3PO4. After the addition of 45 μL MicroScint-E (Perkin-Elmer), plates were sealed with Top Seal-A covers (Perkin-Elmer) and phase partitioning of substrates and products was achieved using a HT-91100 microplate orbital shaker (Big Bear Automation, Santa Clara, Calif.). Plates were centrifuged at 2,000×g for 1 minute in an Allegra 6R Centrifuge (Beckman Coulter) and then were sealed again with fresh covers before reading in a 1450 Microbeta Wallac Trilux Scintillation Counter (Perkin Elmer). DGAT2 activity was measured by quantifying the generated product [^14C]tridecanoylglycerol in the upper organic phase.
Inhibitors were tested at eleven different concentrations to generate IC50 values for each compound.

[4] = High throughput determination of intrinsic clearance in human hepatocytes; assay type: in vitro ADME; settings: human, pooled cryopreserved human hepatocytes (suspension), high throughput human hepatocyte assay, 1 μM test compound; mean +/− Std Dev
Procedure: The incubation was carried out at 37° C. […] The samples were centrifuged (Eppendorf, Hauppauge, N.Y.) at 3000 rpm for 5 min at 4° C.

Sequence of human DGAT2 (hDGAT2) (Q96PD7 whole entry): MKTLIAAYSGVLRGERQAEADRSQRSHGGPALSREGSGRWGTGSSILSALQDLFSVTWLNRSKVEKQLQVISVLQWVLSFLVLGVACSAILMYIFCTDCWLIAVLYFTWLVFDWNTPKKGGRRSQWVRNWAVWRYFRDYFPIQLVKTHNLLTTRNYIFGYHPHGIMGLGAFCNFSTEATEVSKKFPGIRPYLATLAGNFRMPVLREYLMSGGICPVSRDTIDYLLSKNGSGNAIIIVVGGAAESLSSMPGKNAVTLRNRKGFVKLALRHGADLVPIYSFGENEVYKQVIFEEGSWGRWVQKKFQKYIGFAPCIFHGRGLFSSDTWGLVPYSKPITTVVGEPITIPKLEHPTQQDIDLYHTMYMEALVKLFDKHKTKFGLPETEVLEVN

SMILES | pKa [1] | microsomal CLint at 1 μM [2] | IC50 [3] | hepatocyte CLint at 1 μM [4] | further results
CCOc1cccnc1Oc1cncc(-c2ncc(C(=O)N[C@H]3CCC(C(F)(F)F)NC3)cn2)c1 (single isomer, unassigned) [Example 8, rac-2-{5-[(3-ethoxypyridin-2-yl)oxy]pyridin-3-yl}-N-[(3R,6S)-6-(trifluoromethyl)piperidin-3-yl]pyrimidine-5-carboxamide or rac-2-{5-[(3-ethoxypyridin-2-yl)oxy]pyridin-3-yl}-N-[(3R,6R)-6-(trifluoromethyl)piperidin-3-yl]pyrimidine-5-carboxamide] | 5.3 | < 14 µL/min/mg | 650 nM | – | –
CCOc1cccnc1Oc1cncc(-c2ncc(C(=O)N[C@H]3CNCCC3(F)F)cn2)c1 (single isomer, unassigned) [Example 15, N-[(3S)-4,4-difluoropiperidin-3-yl]-2-{5-[(3-ethoxypyridin-2-yl)oxy]pyridin-3-yl}pyrimidine-5-carboxamide, trifluoroacetate salt or N-[(3R)-4,4-difluoropiperidin-3-yl]-2-{5-[(3-ethoxypyridin-2-yl)oxy]pyridin-3-yl}pyrimidine-5-carboxamide, trifluoroacetate salt] | – | 21 µL/min/mg | – | 5.3 µL/min/1e6 cells | –
CCOc1cccnc1Oc1cncc(-c2ncc(C(=O)N[C@@H]3CNCC(F)(F)C3)cn2)c1 (single isomer, unassigned) [Example 19, N-[(3S)-5,5-difluoropiperidin-3-yl]-2-{5-[(3-ethoxypyridin-2-yl)oxy]pyridin-3-yl}pyrimidine-5-carboxamide or N-[(3R)-5,5-difluoropiperidin-3-yl]-2-{5-[(3-ethoxypyridin-2-yl)oxy]pyridin-3-yl}pyrimidine-5-carboxamide] | – | – | 240 nM | – | Basic pKa [1]: 5.2; CLint (+/−STD Dev) [2]: 34 ± 1.9 µL/min/mg
CCOc1cc(F)cnc1Oc1cncc(-c2ncc(C(=O)N[C@H]3CNCC[C@@H]3F)cn2)c1 [Example 13, 2-{5-[(3-ethoxy-5-fluoropyridin-2-yl)oxy]pyridin-3-yl}-N-[(3S,4S)-4-fluoropiperidin-3-yl]pyrimidine-5-carboxamide, formate salt] | 6.7 | 35 µL/min/mg | – | 12 µL/min/1e6 cells | –
CCOc1cccnc1Oc1cncc(-c2ncc(C(=O)N[C@H]3CNCC[C@@H]3F)cn2)c1 [Example 12, 2-{5-[(3-ethoxypyridin-2-yl)oxy]pyridin-3-yl}-N-[(3S,4S)-4-fluoropiperidin-3-yl]pyrimidine-5-carboxamide, trifluoroacetate salt] | 7.5 | < 7 µL/min/mg | – | < 2.6 µL/min/1e6 cells | –
CCOc1cc(F)cnc1Oc1cncc(-c2ncc(C(=O)N[C@@H]3CNC[C@@H](F)C3)cn2)c1 [Example 2, 2-{5-[(3-Ethoxy-5-fluoropyridin-2-yl)oxy]pyridin-3-yl}-N-[(3S,5S)-5-fluoropiperidin-3-yl]pyrimidine-5-carboxamide] | 7.3 | < 7 µL/min/mg | – | 3.6 µL/min/1e6 cells | –
CCOc1cccnc1Oc1cncc(-c2ncc(C(=O)NC3CCCNC3C)cn2)c1 (mixture of isomers) [Example 23, 2-{5-[(3-ethoxypyridin-2-yl)oxy]pyridin-3-yl}-N-(2-methylpiperidin-3-yl)pyrimidine-5-carboxamide, trifluoroacetate salt, mixture of stereoisomers] | – | < 8 µL/min/mg | – | – | –
CCOc1cccnc1Oc1cncc(-c2ncc(C(=O)N[C@@H]3CNCC[C@H]3C)cn2)c1 (racemic) [Example 24, rac-2-{5-[(3-ethoxypyridin-2-yl)oxy]pyridin-3-yl}-N-[(3R,4S)-4-methylpiperidin-3-yl]pyrimidine-5-carboxamide, trifluoroacetate salt] | – | < 8 µL/min/mg | 16000 nM | – | –
CCOc1cccnc1Oc1cncc(-c2ncc(C(=O)NC3CCC(C(F)(F)F)NC3)cn2)c1 (single isomer, unassigned; ent-2) [Example 11, 2-{5-[(3-ethoxypyridin-2-yl)oxy]pyridin-3-yl}-N-[6-(trifluoromethyl)piperidin-3-yl]pyrimidine-5-carboxamide, trifluoroacetate salt, ENT-2] | 4.5 | – | 4.4 nM | – | CLint (+/−STD Dev) [2]: >290 µL/min/mg
CCOc1cccnc1Oc1cncc(-c2ncc(C(=O)N[C@@H]3CNCC(F)(F)C3)cn2)c1 (single isomer, unassigned) [Example 18, N-[(3S)-5,5-difluoropiperidin-3-yl]-2-{5-[(3-ethoxypyridin-2-yl)oxy]pyridin-3-yl}pyrimidine-5-carboxamide or N-[(3R)-5,5-difluoropiperidin-3-yl]-2-{5-[(3-ethoxypyridin-2-yl)oxy]pyridin-3-yl}pyrimidine-5-carboxamide] | 5.2 | 19 µL/min/mg | – | 9.3 µL/min/1e6 cells | –
CCOc1cccnc1Oc1cncc(-c2ncc(C(=O)N[C@H]3CNCCC3(F)F)cn2)c1 (single isomer, unassigned) [Example 16, N-[(3S)-4,4-difluoropiperidin-3-yl]-2-{5-[(3-ethoxypyridin-2-yl)oxy]pyridin-3-yl}pyrimidine-5-carboxamide, trifluoroacetate salt or N-[(3R)-4,4-difluoropiperidin-3-yl]-2-{5-[(3-ethoxypyridin-2-yl)oxy]pyridin-3-yl}pyrimidine-5-carboxamide, trifluoroacetate salt] | 6.4 | – | 480 nM | – | CLint (+/−STD Dev) ([2]; trifluoroacetate salt): 17 µL/min/mg
CCOc1cccnc1Oc1cncc(-c2ncc(C(=O)NC3CCCNC3)cn2)c1 (centres unmarked) [Example 21, 2-{5-[(3-ethoxypyridin-2-yl)oxy]pyridin-3-yl}-N-(piperidin-3-yl)pyrimidine-5-carboxamide, trifluoroacetate salt] | – | < 8 µL/min/mg | – | – | –
CCOc1cccnc1Oc1cncc(-c2ncc(C(=O)N[C@@H]3CCCNC3)cn2)c1 [Example 22, 2-{5-[(3-ethoxypyridin-2-yl)oxy]pyridin-3-yl}-N-[(3R)-piperidin-3-yl]pyrimidine-5-carboxamide, trifluoroacetate salt] | – | < 8 µL/min/mg | – | – | –
CCOc1cccnc1Oc1cncc(-c2ncc(C(=O)N[C@H]3CNCC[C@H]3C)cn2)c1 (racemic) [Example 20, rac-2-{5-[(3-ethoxypyridin-2-yl)oxy]pyridin-3-yl}-N-[(3R,4R)-4-methylpiperidin-3-yl]pyrimidine-5-carboxamide, trifluoroacetate salt] | – | 8.9 µL/min/mg | 2100 nM | – | –
CCOc1cccnc1Oc1cncc(-c2ncc(C(=O)N[C@H]3CCCNC3)cn2)c1 [Example 14, 2-{5-[(3-ethoxypyridin-2-yl)oxy]pyridin-3-yl}-N-[(3S)-piperidin-3-yl]pyrimidine-5-carboxamide, trifluoroacetate salt] | – | < 8 µL/min/mg | – | < 1.8 µL/min/1e6 cells | –
CCOc1cccnc1Oc1cncc(-c2ncc(C(=O)NC3CNCC(F)(F)C3)cn2)c1 (centres unmarked) [Example 17, N-(5,5-difluoropiperidin-3-yl)-2-{5-[(3-ethoxypyridin-2-yl)oxy]pyridin-3-yl}pyrimidine-5-carboxamide] | 5.4 | 23 µL/min/mg | – | 8.3 µL/min/1e6 cells | –
CCOc1cc(F)cnc1Oc1cncc(-c2ncc(C(=O)N[C@@H]3CNCC[C@H]3F)cn2)c1 [Example 6, 2-{5-[(3-Ethoxy-5-fluoropyridin-2-yl)oxy]pyridin-3-yl}-N-[(3R,4R)-4-fluoropiperidin-3-yl]pyrimidine-5-carboxamide] | 7.4 | < 7.8 µL/min/mg | – | 4.7 µL/min/1e6 cells | –
